Source: the supplement of paper PMC10307832

Tests used:
Experiment in all cases: relative viability (nuclei count vs DMSO), 5 days (fraction); higher = more cells survive
[1] = compound: COc1cc2c(Oc3ccc4[nH]c(C)cc4c3F)ncnc2cc1OCCCN1CCCC1 [Cediranib] + Cc1nc(Nc2ncc(C(=O)Nc3c(C)cccc3Cl)s2)cc(N2CCN(CCO)CC2)n1 [Dasatinib] (partner 0.075 µM)
In short: (§1)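 Medians of duplicate plates are given as relative viability. That measure is the nuclei count in treated wells divided by the count in vehicle wells. Counts were taken on 4× images of lung cancer cell lines in 1536-well plates, 5 days after pin-tool dosing the day after seeding with one drug alone or a fixed anchor-drug dose plus five library-drug doses (not always all listed) in √10 steps.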

[2] = compound: Nc1ncn([C@H]2C[C@H](O)[C@@H](CO)O2)c(=O)n1 [Decitabine] + CC(=O)c1c(C)c2cnc(Nc3ccc(N4CCNCC4)cn3)nc2n(C2CCCC2)c1=O [Palbociclib] (partner 0.5 µM)
In short: as §1

[3] = compound: O=C(C[C@H]1NCCC[C@@H]1O)Cn1cnc2cc(Br)c(Cl)cc2c1=O (racemic) [Halofuginone] + CC(=O)c1c(C)c2cnc(Nc3ccc(N4CCNCC4)cn3)nc2n(C2CCCC2)c1=O [Palbociclib] (partner 0.5 µM)
In short: as §1

[4] = compound: O=C(C[C@H]1NCCC[C@@H]1O)Cn1cnc2cc(Br)c(Cl)cc2c1=O (racemic) [Halofuginone] + C[C@@H](Oc1cc(-c2cnn(C3CCNCC3)c2)cnc1N)c1c(Cl)ccc(F)c1Cl [Crizotinib] (partner 1 µM)
In short: as §1

## NCI-H2228
[1]; first compound 0.04 µM
  relative viability: 0.634
[1]; first compound 0.1265 µM
  relative viability: 0.505
[1]; first compound 0.4 µM
  relative viability: 0.52
[1]; first compound 1.265 µM
  relative viability: 0.54
[1]; first compound 4 µM
  relative viability: 0.601
[2]; first compound 0.04 µM
  relative viability: 0.385
[2]; first compound 0.1265 µM
  relative viability: 0.463
[2]; first compound 0.4 µM
  relative viability: 0.215
[2]; first compound 1.265 µM
  relative viability: 0.204
[2]; first compound 4 µM
  relative viability: 0.169
[3]; first compound 0.001 µM
  relative viability: 0.957
[3]; first compound 0.003162 µM
  relative viability: 0.736
[3]; first compound 0.01 µM
  relative viability: 0.971
[3]; first compound 0.03162 µM
  relative viability: 0.496
[3]; first compound 0.1 µM
  relative viability: 0.111
[4]; first compound 0.001 µM
  relative viability: 0.45
[4]; first compound 0.003162 µM
  relative viability: 0.658
[4]; first compound 0.01 µM
  relative viability: 0.411
[4]; first compound 0.03162 µM
  relative viability: 0.218
[4]; first compound 0.1 µM
  relative viability: 0.177

## NCI-H1650
[1]; first compound 0.04 µM
  relative viability: 0.343
[1]; first compound 0.1265 µM
  relative viability: 0.384
[1]; first compound 0.4 µM
  relative viability: 0.328
[1]; first compound 1.265 µM
  relative viability: 0.37
[1]; first compound 4 µM
  relative viability: 0.299
[2]; first compound 0.04 µM
  relative viability: 0.262
[2]; first compound 0.1265 µM
  relative viability: 0.353
[2]; first compound 0.4 µM
  relative viability: 0.248
[2]; first compound 1.265 µM
  relative viability: 0.255
[2]; first compound 4 µM
  relative viability: 0.293
[3]; first compound 0.001 µM
  relative viability: 0.265
[3]; first compound 0.003162 µM
  relative viability: 0.303
[3]; first compound 0.01 µM
  relative viability: 0.323
[3]; first compound 0.03162 µM
  relative viability: 0.323
[3]; first compound 0.1 µM
  relative viability: 0.173
[4]; first compound 0.001 µM
  relative viability: 1.05
[4]; first compound 0.003162 µM
  relative viability: 1.05
[4]; first compound 0.01 µM
  relative viability: 0.951
[4]; first compound 0.03162 µM
  relative viability: 0.823
[4]; first compound 0.1 µM
  relative viability: 0.59

## NCI-H358
[1]; first compound 0.04 µM
  relative viability: 0.174
[1]; first compound 0.1265 µM
  relative viability: 0.239
[1]; first compound 0.4 µM
  relative viability: 0.194
[1]; first compound 1.265 µM
  relative viability: 0.137
[1]; first compound 4 µM
  relative viability: 0.173
[2]; first compound 0.04 µM
  relative viability: 0.179
[2]; first compound 0.1265 µM
  relative viability: 0.118
[2]; first compound 0.4 µM
  relative viability: 0.114
[2]; first compound 1.265 µM
  relative viability: 0.13
[2]; first compound 4 µM
  relative viability: 0.135
[3]; first compound 0.001 µM
  relative viability: 0.142
[3]; first compound 0.003162 µM
  relative viability: 0.127
[3]; first compound 0.01 µM
  relative viability: 0.141
[3]; first compound 0.03162 µM
  relative viability: 0.129
[3]; first compound 0.1 µM
  relative viability: 0.0899
[4]; first compound 0.001 µM
  relative viability: 0.832
[4]; first compound 0.003162 µM
  relative viability: 0.678
[4]; first compound 0.01 µM
  relative viability: 0.467
[4]; first compound 0.03162 µM
  relative viability: 0.253
[4]; first compound 0.1 µM
  relative viability: 0.0914

## NCI-H1792
[1]; first compound 0.04 µM
  relative viability: 0.823
[1]; first compound 0.1265 µM
  relative viability: 0.872
[1]; first compound 0.4 µM
  relative viability: 0.557
[1]; first compound 1.265 µM
  relative viability: 0.923
[1]; first compound 4 µM
  relative viability: 0.957
[2]; first compound 0.04 µM
  relative viability: 0.753
[2]; first compound 0.1265 µM
  relative viability: 0.76
[2]; first compound 0.4 µM
  relative viability: 0.646
[2]; first compound 1.265 µM
  relative viability: 0.595
[2]; first compound 4 µM
  relative viability: 0.512
[3]; first compound 0.001 µM
  relative viability: 0.613
[3]; first compound 0.003162 µM
  relative viability: 0.704
[3]; first compound 0.01 µM
  relative viability: 0.666
[3]; first compound 0.03162 µM
  relative viability: 0.662
[3]; first compound 0.1 µM
  relative viability: 0.585
[4]; first compound 0.001 µM
  relative viability: 1.04
[4]; first compound 0.003162 µM
  relative viability: 0.973
[4]; first compound 0.01 µM
  relative viability: 0.985
[4]; first compound 0.03162 µM
  relative viability: 0.959
[4]; first compound 0.1 µM
  relative viability: 1.03

## COR-L 105
[1]; first compound 0.04 µM
  relative viability: 0.346
[1]; first compound 0.1265 µM
  relative viability: 0.375
[1]; first compound 0.4 µM
  relative viability: 0.388
[1]; first compound 1.265 µM
  relative viability: 0.352
[1]; first compound 4 µM
  relative viability: 0.368
[2]; first compound 0.04 µM
  relative viability: 0.45
[2]; first compound 0.1265 µM
  relative viability: 0.474
[2]; first compound 0.4 µM
  relative viability: 0.397
[2]; first compound 1.265 µM
  relative viability: 0.408
[2]; first compound 4 µM
  relative viability: 0.387
[3]; first compound 0.001 µM
  relative viability: 0.441
[3]; first compound 0.003162 µM
  relative viability: 0.403
[3]; first compound 0.01 µM
  relative viability: 0.396
[3]; first compound 0.03162 µM
  relative viability: 0.392
[3]; first compound 0.1 µM
  relative viability: 0.413
[4]; first compound 0.001 µM
  relative viability: 1.01
[4]; first compound 0.003162 µM
  relative viability: 0.853
[4]; first compound 0.01 µM
  relative viability: 0.722
[4]; first compound 0.03162 µM
  relative viability: 0.718
[4]; first compound 0.1 µM
  relative viability: 0.515

## LU99A
[1]; first compound 0.04 µM
  relative viability: 0.504
[1]; first compound 0.1265 µM
  relative viability: 0.465
[1]; first compound 0.4 µM
  relative viability: 0.513
[1]; first compound 1.265 µM
  relative viability: 0.433
[1]; first compound 4 µM
  relative viability: 0.655
[2]; first compound 0.04 µM
  relative viability: 0.39
[2]; first compound 0.1265 µM
  relative viability: 0.434
[2]; first compound 0.4 µM
  relative viability: 0.445
[2]; first compound 1.265 µM
  relative viability: 0.321
[2]; first compound 4 µM
  relative viability: 0.291
[3]; first compound 0.001 µM
  relative viability: 0.444
[3]; first compound 0.003162 µM
  relative viability: 0.466
[3]; first compound 0.01 µM
  relative viability: 0.393
[3]; first compound 0.03162 µM
  relative viability: 0.401
[3]; first compound 0.1 µM
  relative viability: 0.41
[4]; first compound 0.001 µM
  relative viability: 0.632
[4]; first compound 0.003162 µM
  relative viability: 0.556
[4]; first compound 0.01 µM
  relative viability: 0.558
[4]; first compound 0.03162 µM
  relative viability: 0.499
[4]; first compound 0.1 µM
  relative viability: 0.41

## H3255
[1]; first compound 0.04 µM
  relative viability: 0.409
[1]; first compound 0.4 µM
  relative viability: 0.332
[1]; first compound 1.265 µM
  relative viability: 0.302
[1]; first compound 4 µM
  relative viability: 0.36
[2]; first compound 0.04 µM
  relative viability: 0.333
[2]; first compound 0.1265 µM
  relative viability: 0.343
[2]; first compound 0.4 µM
  relative viability: 0.3
[2]; first compound 1.265 µM
  relative viability: 0.302
[2]; first compound 4 µM
  relative viability: 0.307
[3]; first compound 0.001 µM
  relative viability: 0.322
[3]; first compound 0.003162 µM
  relative viability: 0.323
[3]; first compound 0.01 µM
  relative viability: 0.346
[3]; first compound 0.03162 µM
  relative viability: 0.309
[3]; first compound 0.1 µM
  relative viability: 0.351
[4]; first compound 0.001 µM
  relative viability: 0.94
[4]; first compound 0.003162 µM
  relative viability: 0.948
[4]; first compound 0.01 µM
  relative viability: 0.875
[4]; first compound 0.03162 µM
  relative viability: 0.952
[4]; first compound 0.1 µM
  relative viability: 0.791
